Experimental data reported in patent publication US10392391B2 (Vertex Pharmaceuticals Incorporated, priority 2012, dated 2019).
Where two headings read alike, the source gives them in different places.

Molecular target: ATR kinase (full-length ATR) (Homo sapiens (Human), UniProt Q13535)
Assay: ATR inhibition assay (radioactive-phosphate incorporation)
Type: biochemical
Method: Compounds were screened for their ability to inhibit ATR kinase using a radioactive-phosphate incorporation assay. Assays were carried out in a mixture of 50 mM Tris/HCl (pH 7.5), 10 mM MgCl2 and 1 mM DTT. Final substrate concentrations were 10 μM [γ-33P]ATP (3mCi 33P ATP/mmol ATP, Perkin Elmer) and 800 μM target peptide ([…]) (SEQ ID NO:1).
Assays were carried out at 25° C. in the presence of 5 nM full-length ATR. An assay stock buffer solution was prepared containing all of the reagents listed above, with the exception of ATP and the test compound of interest. 13.5 μL of the stock solution was placed in a 96 well plate followed by addition of 2 μL of DMSO stock containing serial dilutions of the test compound (typically starting from a final concentration of 15 μM with 3-fold serial dilutions) in duplicate (final DMSO concentration 7%). The plate was pre-incubated for 10 minutes at 25° C. and the reaction initiated by addition of 15 μL [γ-33P]ATP (final concentration 10 μM).
The reaction was stopped after […] by the addition of 30 μL 0.1M phosphoric acid containing 2 mM ATP. A multiscreen phosphocellulose filter 96-well plate (Millipore, Cat no. MAPHN0B50) was pretreated with 100 μL 0.2M phosphoric acid prior to the addition of […] of the stopped assay mixture. The plate was washed with 5×200 μL 0.2M phosphoric acid. After drying, 100 μL Optiphase ‘SuperMix’ liquid scintillation cocktail (Perkin Elmer) was added to the well prior to scintillation counting (1450 Microbeta Liquid Scintillation Counter, Wallac).
After removing mean background values for all of the data points, Ki(app) data were calculated from non-linear regression analysis of the initial rate data using the Prism software package (GraphPad Prism version 3.0cx for Macintosh, GraphPad Software, San Diego Calif., USA).

[1] = Ki(app), 5 nM full-length ATR, 10 μM ATP, 25° C.

Sequence of ATR kinase (full-length ATR) (Q13535 whole entry): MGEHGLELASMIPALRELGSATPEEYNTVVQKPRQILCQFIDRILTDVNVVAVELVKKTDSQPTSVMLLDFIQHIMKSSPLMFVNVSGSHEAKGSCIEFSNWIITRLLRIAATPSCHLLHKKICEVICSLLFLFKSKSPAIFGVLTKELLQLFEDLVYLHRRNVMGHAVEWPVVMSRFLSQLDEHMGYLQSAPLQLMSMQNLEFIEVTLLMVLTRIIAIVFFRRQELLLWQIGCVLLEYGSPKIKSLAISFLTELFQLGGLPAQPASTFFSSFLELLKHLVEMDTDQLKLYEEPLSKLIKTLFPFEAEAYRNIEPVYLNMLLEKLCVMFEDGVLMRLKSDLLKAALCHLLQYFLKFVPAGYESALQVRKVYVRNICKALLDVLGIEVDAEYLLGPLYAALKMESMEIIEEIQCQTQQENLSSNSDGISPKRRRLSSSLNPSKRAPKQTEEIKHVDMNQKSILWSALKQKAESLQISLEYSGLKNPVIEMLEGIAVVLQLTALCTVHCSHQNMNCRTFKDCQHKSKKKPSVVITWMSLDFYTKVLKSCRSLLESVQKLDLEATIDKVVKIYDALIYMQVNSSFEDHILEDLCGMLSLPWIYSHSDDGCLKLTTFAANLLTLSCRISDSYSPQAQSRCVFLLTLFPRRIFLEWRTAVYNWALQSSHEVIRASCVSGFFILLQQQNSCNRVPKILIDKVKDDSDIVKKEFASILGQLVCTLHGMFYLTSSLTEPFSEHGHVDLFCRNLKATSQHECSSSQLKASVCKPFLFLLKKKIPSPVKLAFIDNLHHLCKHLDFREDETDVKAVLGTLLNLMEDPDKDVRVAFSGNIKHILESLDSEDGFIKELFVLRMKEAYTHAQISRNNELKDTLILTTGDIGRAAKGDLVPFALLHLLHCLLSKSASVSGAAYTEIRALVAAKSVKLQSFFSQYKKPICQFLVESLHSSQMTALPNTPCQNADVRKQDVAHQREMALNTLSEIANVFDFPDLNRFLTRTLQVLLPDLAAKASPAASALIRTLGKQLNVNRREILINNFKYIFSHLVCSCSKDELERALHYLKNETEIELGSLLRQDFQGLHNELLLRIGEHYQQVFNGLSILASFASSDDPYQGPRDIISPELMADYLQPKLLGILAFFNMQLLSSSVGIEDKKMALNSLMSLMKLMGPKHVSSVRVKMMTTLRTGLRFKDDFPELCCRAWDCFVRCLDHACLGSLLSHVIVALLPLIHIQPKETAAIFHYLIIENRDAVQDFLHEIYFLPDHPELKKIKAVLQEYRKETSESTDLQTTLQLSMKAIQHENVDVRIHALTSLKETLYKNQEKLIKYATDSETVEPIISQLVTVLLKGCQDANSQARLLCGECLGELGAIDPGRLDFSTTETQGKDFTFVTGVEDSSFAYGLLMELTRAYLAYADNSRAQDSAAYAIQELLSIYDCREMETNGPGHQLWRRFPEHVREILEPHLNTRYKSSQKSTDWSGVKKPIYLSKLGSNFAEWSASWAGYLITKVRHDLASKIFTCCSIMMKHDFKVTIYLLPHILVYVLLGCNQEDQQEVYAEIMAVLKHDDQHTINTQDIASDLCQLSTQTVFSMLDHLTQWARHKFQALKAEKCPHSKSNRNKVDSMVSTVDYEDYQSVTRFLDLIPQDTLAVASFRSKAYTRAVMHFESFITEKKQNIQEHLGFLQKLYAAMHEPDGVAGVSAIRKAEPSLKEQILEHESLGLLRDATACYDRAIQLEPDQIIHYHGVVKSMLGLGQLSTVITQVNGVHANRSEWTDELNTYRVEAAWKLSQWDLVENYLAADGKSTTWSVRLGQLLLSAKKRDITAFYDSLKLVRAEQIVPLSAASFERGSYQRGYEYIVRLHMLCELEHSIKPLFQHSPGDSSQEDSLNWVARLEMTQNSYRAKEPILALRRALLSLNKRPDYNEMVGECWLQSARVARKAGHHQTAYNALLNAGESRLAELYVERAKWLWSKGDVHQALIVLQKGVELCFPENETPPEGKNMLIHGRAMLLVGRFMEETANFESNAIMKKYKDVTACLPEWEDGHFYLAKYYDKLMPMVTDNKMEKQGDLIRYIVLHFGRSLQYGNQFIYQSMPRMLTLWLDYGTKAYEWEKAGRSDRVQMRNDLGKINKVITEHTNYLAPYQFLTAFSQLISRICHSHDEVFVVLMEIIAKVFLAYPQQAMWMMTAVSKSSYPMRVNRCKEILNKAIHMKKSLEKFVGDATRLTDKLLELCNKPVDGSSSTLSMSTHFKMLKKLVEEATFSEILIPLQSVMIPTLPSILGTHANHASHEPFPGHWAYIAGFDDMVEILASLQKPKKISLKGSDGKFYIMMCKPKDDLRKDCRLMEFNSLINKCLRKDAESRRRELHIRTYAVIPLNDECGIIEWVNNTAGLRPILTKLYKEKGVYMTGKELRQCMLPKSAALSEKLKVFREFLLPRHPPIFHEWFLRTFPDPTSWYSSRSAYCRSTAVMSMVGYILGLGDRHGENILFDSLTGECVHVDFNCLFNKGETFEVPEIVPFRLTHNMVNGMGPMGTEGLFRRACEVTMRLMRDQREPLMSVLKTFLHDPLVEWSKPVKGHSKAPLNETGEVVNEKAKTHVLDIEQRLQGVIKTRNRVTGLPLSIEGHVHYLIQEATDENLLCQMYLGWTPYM

Row | SMILES | Ki [1] | Ki
1 | Nc1nn2cc(F)cnc2c1C(=O)Nc1cncc(F)c1N1CCN(C(=O)C2CN3CCC2CC3)CC1 (stereo not shown) [I-N-130, 2-amino-6-fluoro-N-(5-fluoro-4-(4-(quinuclidine-3-carbonyl)piperazin-1-yl)pyridin-3-yl)pyrazolo[1,5-a]pyrimidine-3-carboxamide] | 0.01 to 1 µM | –
2 | Nc1nn2cc(Cl)cnc2c1C(=O)Nc1cnccc1N1CC[S+]([O-])CC1 [I-N-68, 2-amino-6-chloro-N-(4-(1-oxidothiomorpholino)pyridin-3-yl)pyrazolo[1,5-a]pyrimidine-3-carboxamide] | 0.01 to 1 µM | –
3 | COc1ccncc1NC(=O)c1c(N)nn2cc(Cl)cnc12 [I-O-57, 2-amino-6-chloro-N-(4-methoxypyridin-3-yl)pyrazolo[1,5-a]pyrimidine-3-carboxamide] | 0.01 to 1 µM | –
4 | Cc1ccncc1NC(=O)c1c(N)nn2cc(Cl)cnc12 [I-C-2, 2-amino-6-chloro-N-(4-methylpyridin-3-yl)pyrazolo[1,5-a]pyrimidine-3-carboxamide] | – | 1 to 5 µM
5 | Nc1nn2cc(F)cnc2c1C(=O)Nc1cnccc1N1CCN(S(=O)(=O)C2CC2)CC1 [I-N-176, 2-amino-N-(4-(4-(cyclopropylsulfonyl)piperazin-1-yl)pyridin-3-yl)-6-fluoropyrazolo[1,5-a]pyrimidine-3-carboxamide] | 0.01 to 1 µM | –
6 | Nc1nn2cc(F)cnc2c1C(=O)Nc1cnccc1OC1CCN(C2COC2)CC1 [I-O-11, 2-amino-6-fluoro-N-(4-((1-(oxetan-3-yl)piperidin-4-yl)oxy)pyridin-3-yl)pyrazolo[1,5-a]pyrimidine-3-carboxamide] | 0.01 to 1 µM | –
7 | CN1CCN(c2c(NC(=O)c3c(N)nn4cc(F)cnc34)cncc2C(F)F)CC1 [I-N-111, 2-amino-N-(5-(difluoromethyl)-4-(4-methylpiperazin-1-yl)pyridin-3-yl)-6-fluoropyrazolo[1,5-a]pyrimidine-3-carboxamide] | – | 1 to 5 µM
8 | Cc1cncc(NC(=O)c2c(N)nn3cc(F)cnc23)c1-n1nccc1C [I-N-237] | 0.01 to 1 µM | –
9 | CCN1CCN(c2ccncc2NC(=O)c2c(N)nn3cc(Cl)cnc23)CC1 [I-N-51, 2-amino-6-chloro-N-(4-(4-ethylpiperazin-1-yl)pyridin-3-yl)pyrazolo[1,5-a]pyrimidine-3-carboxamide] | 0.01 to 1 µM | –
10 | Cc1nc(C(=O)N2CCN(C)CC2)ccc1-c1ccncc1NC(=O)c1c(N)nn2cc(F)cnc12 [I-C-39, 2-amino-6-fluoro-N-(2-methyl-6-(4-methylpiperazine-1-carbonyl)-[3,4′-bipyridin]-3′-yl)pyrazolo[1,5-a]pyrimidine-3-carboxamide] | 0.01 to 1 µM | –
11 | Nc1nn2cc(F)cnc2c1C(=O)Nc1cncc(Cl)c1N1CCN2CCN(C3COC3)CC2C1 (stereo not shown) [I-N-38, 2-amino-N-(5-chloro-4-(8-(oxetan-3-yl)hexahydro-1H-pyrazino[1,2-a]pyrazin-2(6H)-yl)pyridin-3-yl)-6-fluoropyrazolo[1,5-a]pyrimidine-3-carboxamide] | 0.01 to 1 µM | –
12 | CN1CCC(Oc2ccncc2NC(=O)c2c(N)nn3cc(CC#N)cnc23)CC1 [I-O-23, 2-amino-6-(cyanomethyl)-N-(4-((1-methylpiperidin-4-yl)oxy)pyridin-3-yl)pyrazolo[1,5-a]pyrimidine-3-carboxamide] | 0.01 to 1 µM | –
13 | Nc1nn2cc(F)cnc2c1C(=O)Nc1cnccc1N1CCN2C(=O)CCCC2C1 (stereo not shown) [I-N-244, 2-amino-6-fluoro-N-(4-(6-oxohexahydro-1H-pyrido[1,2-a]pyrazin-2(6H)-yl)pyridin-3-yl)pyrazolo[1,5-a]pyrimidine-3-carboxamide] | 0.01 to 1 µM | –
14 | CC(=O)N1CCC2(CCN(c3ccncc3NC(=O)c3c(N)nn4cc(F)cnc34)CC2)C1 [I-N-257, N-(4-(2-acetyl-2,8-diazaspiro[4.5]decan-8-yl)pyridin-3-yl)-2-amino-6-fluoropyrazolo[1,5-a]pyrimidine-3-carboxamide] | 0.01 to 1 µM | –
15 | CN1CCC[C@H]1C(=O)N1CCN(c2ccncc2NC(=O)c2c(N)nn3cc(F)cnc23)CC1 [I-N-198, (S)-2-amino-6-fluoro-N-(4-(4-(1-methylpyrrolidine-2-carbonyl)piperazin-1-yl)pyridin-3-yl)pyrazolo[1,5-a]pyrimidine-3-carboxamide] | 0.01 to 1 µM | –
16 | CN1CCN(c2c(C#N)cncc2NC(=O)c2c(N)nn3cc(F)cnc23)CC1 [I-N-113, 2-amino-N-(5-cyano-4-(4-methylpiperazin-1-yl)pyridin-3-yl)-6-fluoropyrazolo[1,5-a]pyrimidine-3-carboxamide] | – | 1 to 5 µM
17 | N#CCc1cnc2c(C(=O)Nc3cnccc3OC3CCCOC3)c(N)nn2c1 (stereo not shown) [I-O-41, 2-amino-6-(cyanomethyl)-N-(4-((tetrahydro-2H-pyran-3-yl)oxy)pyridin-3-yl)pyrazolo[1,5-a]pyrimidine-3-carboxamide] | < 0.01 µM | –
18 | Cn1ccc(-c2ccncc2NC(=O)c2c(N)nn3cc(F)cnc23)n1 [I-C-68, 2-amino-6-fluoro-N-(4-(1-methyl-1H-pyrazol-3-yl)pyridin-3-yl)pyrazolo[1,5-a]pyrimidine-3-carboxamide] | 0.01 to 1 µM | –
19 | Nc1nn2cc(F)cnc2c1C(=O)Nc1cncc(C2CC2)c1N1CCN([C@@H]2CCOC2)CC1 [I-N-119, (R)-2-amino-N-(5-cyclopropyl-4-(4-(tetrahydrofuran-3-yl)piperazin-1-yl)pyridin-3-yl)-6-fluoropyrazolo[1,5-a]pyrimidine-3-carboxamide] | 0.01 to 1 µM | –
20 | CNc1cc(OC)c(NC(=O)c2c(N)nn3cc(F)cnc23)cn1 [I-O-90, 2-amino-6-fluoro-N-(4-methoxy-6-(methylamino)pyridin-3-yl)pyrazolo[1,5-a]pyrimidine-3-carboxamide] | 0.01 to 1 µM | –
21 | N#CCc1cnc2c(C(=O)Nc3cnccc3-c3ccccc3)c(N)nn2c1 [I-C-6, 2-amino-6-(cyanomethyl)-N-(4-phenylpyridin-3-yl)pyrazolo[1,5-a]pyrimidine-3-carboxamide] | 0.01 to 1 µM | –

More lines, now with the values ahead:

Row | Ki [1] | Ki | SMILES
22 | 0.01 to 1 µM | – | CN1CCN(c2c(F)cncc2NC(=O)c2c(N)nn3cc(Cl)cnc23)CC1 [I-N-14, 2-amino-6-chloro-N-(5-fluoro-4-(4-methylpiperazin-1-yl)pyridin-3-yl)pyrazolo[1,5-a]pyrimidine-3-carboxamide]
23 | 0.01 to 1 µM | – | Nc1nn2cc(F)cnc2c1C(=O)Nc1cncc(F)c1N1CCC(n2ccnc2)CC1 [I-N-288, N-(4-(4-(1H-imidazol-1-yl)piperidin-1-yl)-5-fluoropyridin-3-yl)-2-amino-6-fluoropyrazolo[1,5-a]pyrimidine-3-carboxamide]
24 | 0.01 to 1 µM | – | CN(C)[C@@H]1CCN(C(=O)C2CCN(c3c(F)cncc3NC(=O)c3c(N)nn4cc(F)cnc34)CC2)C1 [I-G-11, (R)-2-amino-N-(4-(4-(3-(dimethylamino)pyrrolidine-1-carbonyl)piperidin-1-yl)-5-fluoropyridin-3-yl)-6-fluoropyrazolo[1,5-a]pyrimidine-3-carboxamide]
25 | 0.01 to 1 µM | – | CN1CC2(CCN(c3c(F)cncc3NC(=O)c3c(N)nn4cc(F)cnc34)CC2)OC1=O [I-N-229, 2-amino-6-fluoro-N-(5-fluoro-4-(3-methyl-2-oxo-1-oxa-3,8-diazaspiro[4.5]decan-8-yl)pyridin-3-yl)pyrazolo[1,5-a]pyrimidine-3-carboxamide]
26 | 0.01 to 1 µM | – | COCC1CN(C(=O)C2CCN(c3c(F)cncc3NC(=O)c3c(N)nn4cc(F)cnc34)CC2)C1 [I-G-98, 2-amino-6-fluoro-N-(5-fluoro-4-(4-(3-(methoxymethyl)azetidine-1-carbonyl)piperidin-1-yl)pyridin-3-yl)pyrazolo[1,5-a]pyrimidine-3-carboxamide]
27 | 0.01 to 1 µM | – | Nc1nn2cc(F)cnc2c1C(=O)Nc1cncc(F)c1N1CCN2C(=O)CCC2C1 (stereo not shown) [I-N-163, 2-amino-6-fluoro-N-(5-fluoro-4-(6-oxohexahydropyrrolo[1,2-a]pyrazin-2(1H)-yl)pyridin-3-yl)pyrazolo[1,5-a]pyrimidine-3-carboxamide]
28 | – | 1 to 5 µM | Nc1nn2cc(F)cnc2c1C(=O)Nc1cncc(F)c1N1CCC(C(=O)N2CC(O)C2)CC1 [I-G-41, 2-amino-6-fluoro-N-(5-fluoro-4-(4-(3-hydroxyazetidine-1-carbonyl)piperidin-1-yl)pyridin-3-yl)pyrazolo[1,5-a]pyrimidine-3-carboxamide]
29 | 0.01 to 1 µM | – | Nc1nn2cc(F)cnc2c1C(=O)Nc1cncc(F)c1N1CCN(S(=O)(=O)C2COC2)CC1 [I-N-201]
30 | – | 0.01 to 1 µM | CN1CC[C@@H](OC2CCN(c3c(F)cncc3NC(=O)c3c(N)nn4cc(F)cnc34)CC2)C1 [I-N-132, (R)-2-amino-6-fluoro-N-(5-fluoro-4-(4-((1-methylpyrrolidin-3-yl)oxy)piperidin-1-yl)pyridin-3-yl)pyrazolo[1,5-a]pyrimidine-3-carboxamide]
31 | 0.01 to 1 µM | – | CN(C)CCCN(C)C(=O)C1CCN(c2c(F)cncc2NC(=O)c2c(N)nn3cc(F)cnc23)CC1 [I-G-16, 2-amino-N-(4-(4-((3-(dimethylamino)propyl)(methyl)carbamoyl)piperidin-1-yl)-5-fluoropyridin-3-yl)-6-fluoropyrazolo[1,5-a]pyrimidine-3-carboxamide]
